Experimental data from patent US11344527B2, “Methods and compositions for treating cancer” (Sutter West Bay Hospitals, priority 2007, dated 2022).
“Also recorded” adds a separate entry of the source. Read-outs that look alike come from different tables or passages of the source.

Columns and labels:
Id-1 [1] = assay: Id-1 protein expression by quantitative Western analysis, MDA-MB231; type: cell-based, human; details: MDA-MB231 cells, 1.5 μM, two days, FIG. 1E
Source text: Proteins were separated by SDS/PAGE, blotted on Immobilon membrane, and probed with anti-Id-1 and the appropriate secondary antibody. Band intensity values were obtained directly from the blot using AlphaeaseFC software (San Leandro, Calif.) or from film using Image-J (NIH, MD). As a normalization control for loading, blots were stripped and re-probed with mouse alpha-tubulin (Abeam, Cambridge, Mass.).
The ability of CBD to regulate the expression of key genes that control breast cancer cell aggressiveness and invasiveness was determined A potential candidate protein that could mediate the effects of CBD on both phenotypes was the helix-loop-helix protein Id-1. […] The inhibitory effect of CBD on Id-1 expression occurred at concentrations as low as 100 nM. […] The CBD concentrations effective at inhibiting Id-1 expression correlated with those used to inhibit the proliferative and invasive phenotype of MDA-MB231 cells. Furthermore, the time period needed to observe the down-regulation of Id-1 protein in the presence of CBD correlated with the inhibitory effects of CBD on the aggressiveness and invasiveness of MDA-MB231 cells (FIG. 1, panel D).
In order to determine the SAR between cannabinoids and the inhibition of Id-1, MDA-MB231 cells were treated for two days with multiple cannabinoid compounds and Id-1 protein levels were assessed.

ERK, JNK, and p38 MAPK = assay: MAPK activity (pERK, ERK, JNK, p38) by Western analysis, U251; type: cell-based, human
Protocol: Cells cultured and treated in 6-well dishes were washed twice with cold PBS. Lysis buffer was added and cells lysed by freezing for 10 min at −70° C. and then thawing. Cell lysate was collected and the concentration was determined using Bradford reagent. Equal amounts of protein were heated to 90° C. in Laemmli sample buffer with β-mercaptoethanol, and loaded onto a precast SDS-PAGE gel (Bio-Rad Laboratories, Hercules, Calif.). Protein was transferred to an Immobilon membrane (Millipore, Billerica, Mass.) overnight at 2-4° C. Blots were then blocked with 5% nonfat dry milk in TBS+Tween for 1 h. Primary antibody from Millipore (rabbit anti-phospho-JNK, rabbit anti-phospho-p38, rabbit anti-phospho-ERK1/2 and rabbit anti-ERK1/2, 1 mcg/mL) in blocking buffer was then added for 1 h. The blots were then rinsed three times 10 min with TBS+Tween. Secondary antibody (Donkey Anti-Rabbit IgG, Jackson Immunoresearch, West Grove, Pa.) was then added. Blots were incubated for 45 min and then washed 4 times for 15 min each. The blots were developed with SuperSignal Femto (Pierce, Rockford, Ill.), and imaged on either a Fluorchem 8900 (Alpha Innotech, San Leandro, Calif.) or ECL Hyperfilm (Amersham-Pharmacia, Piscataway, N.J.). Band intensity values were obtained (after background subtraction) directly from the […] using AlphaeaseFC software (San Leandro, Calif.) or from film using Image-J (NIH, MD). As a normalization control for loading, blots were stripped and re-probed with mouse alpha-tubulin (Abcam, Cambridge, Mass.) and goat anti-mouse IgG (Jackson Immunoresearch) for the primary and secondary antibodies, respectively.
The regulation of ERK, JNK, and p38 MAPK activity plays a role in controlling cell growth and apoptosis. U251 cells were used to determine whether modulation of ERK, JNK, and p38 MAPK activity occurred.

U87 cells = assay: MTT cell proliferation assay, U87 GBM cells; type: cell-based, human; details: 95% confidence limits
Protocol: (§1) The human GBM cell lines used were SF126, U87 and U251. Cell lines were maintained at 37° C. and 5% CO2.
(§2) Treatment groups were divided into 1) no treatment (control), 2) Δ^9-THC alone, 3) CBD alone, 4) Δ^9-THC and CBD combined. Positive and negative aspects of constituent interaction were determined in this 2×2 design using 2-way analysis of variance as described by (Slinker, 1998). […] Significant differences were also determined using ANOVA where suitable. […] P values <0.05 defined statistical significance.

Id-1 [2] = assay: Id-1 protein expression by Western blot, U251; type: cell-based, human; details: FIG. 11
SF126 cells = assay: MTT cell proliferation assay, SF126 GBM cells; type: cell-based, human
Protocol: as §1, §2

Id-1 promoter = Id-1 promoter luciferase reporter assay, MDA-MB231; type: cell-based, human; details: MDA-MB231 cells, 1.5 μM, 2 or 3 days; FIG. 2B, C
Protocol: A SacI-BspHI fragment of 2.2 kb corresponding to the 5′ upstream region of human Id-1 gene and driving a luciferase gene in a PGL-3 vector (Promega) has already been described (Id-1-sbsluc). Cells were plated in six well dishes in medium supplemented with 10% FBS and 5 μg/ml insulin. After 24 h, cells were cotransfected with […] of luciferase reporter plasmids and 2 μg of pCMVβ (Clontech) using superfect reagent (Qiagen). pCMVβ contained bacterial β-galactosidase and served to control for variation in transfection efficiency. 3 h after transfection, the cells were rinsed twice with PBS and were cultured in the absence or presence of CBD for 48-72 h. Cell pellets were lysed in 80 μl of reporter lysis buffer (Promega) for 10 min at room temperature. Lysed cells were centrifuged and supernatants harvested. […]
To determine if this effect was due to the inhibition of transcription, a construct was used that contained the Id-1 promoter fused to a luciferase reporter in a PGL-3 basic vector. […] Twenty-four hours after transfection, MDA-MB231-Id-1-luc cells were treated with CBD for 2 or 3 days and luciferase activity was measured (FIG. 2, panel B and panel C). […] These findings correlated to the data obtained when the expression of the Id-1 protein was assessed by Western analysis.

MDA-MB436 cells = assay: MTT cell proliferation assay, MDA-MB436; details: read-out: IC50 antiproliferative, MDA-MB436
MDA-MB231 cells [3] = assay: Boyden chamber invasion assay, MDA-MB231; type: cell-based, human; details: for invasion of MDA-MB231 cells: 0.1, 1.0 or 1.5 μM, FIG. 1A
Protocol: Invasion is an important step towards breast cancer cell metastasis. Therefore, the effects of several cannabinoids were tested on their ability to modulate the migratory and invasiveness activity of the most aggressive human breast cancer cell line, MDA-MB231, in a reconstituted basement membrane in a Boyden chamber.

U251 cells [4] = assay: Cell cycle analysis (PI staining, FACS), U251; type: cell-based, human; details: Δ9-THC 1.7 μM and/or CBD 0.4 μM, FIG. 8
Protocol: U251 cells were grown in Petri dishes (100 mm×15 mm) and received drug treatments for 2 days. On the third day, the cells were harvested and centrifuged at 1200 rpm for 5 minutes. The pellet was washed 1× with PBS+1% BSA, and centrifuged again. The pellet was resuspended in 0.5 ml of 2% paraformaldehyde (diluted with PBS) and left to fix overnight at room temperature. The next day the cells were pelleted and resuspended in 0.5 ml 0.3% Triton in PBS and incubated for 5 minutes at room temperature. The cells were then washed 2 times with PBS+1% BSA. The cells were finally suspended in PBS (0.1% BSA) with 10 ug/ml Propidium Iodide and 100 μg/ml RNAse. The cells were incubated for 30 minutes at room temperature before being stored at 4 C. Cell cycle was measured using a FACS Calibur using Cell Quest Pro and Modfit software.

U251 cells [5] = assay: MTT cell proliferation assay, U251 GBM cells; type: cell-based, human; details: 95% confidence limits
Protocol: as §1, §2

MDA-MB231 cells [6] = assay: MTT cell proliferation assay, MDA-MB231; details: read-out: IC50 antiproliferative, MDA-MB231
[7] = Homo sapiens, SF-126, 72 h, three day treatment, 95% confidence limits (Table 4), read-out: IC50 antiproliferative, SF126
[8] = three day treatment, 95% confidence limits (Table 4), read-out: IC50 antiproliferative, SF126
[9] = treated for three days, value with confidence limits

## C=C(C)[C@@H]1CCC(C)=C[C@H]1c1c(C)cc(O)cc1O [0-1602]
Id-1 [1]
  inhibition of Id-1 protein (structure activity relationship): No inhibition

## C=C(C)[C@@H]1CCC(C)=C[C@H]1c1c(O)cc(O)cc1CCCCC [Abn-CBD]
Id-1 [1]
  inhibition of Id-1 protein (structure activity relationship): No inhibition

## C=C(C)[C@@H]1CCC(C)=C[C@H]1c1c(O)cc(CCCCC)cc1O [CBD, cannabidiol]
ERK, JNK, and p38 MAPK; U251, three days, 2.5 μM Δ9-THC, 2.0 μM CBD, or 1.7 μM/0.4 μM combination, FIG. 6D
  p-ERK, higher concentrations alone compared with the combination: small inhibition
ERK, JNK, and p38 MAPK; U251, Δ9-THC 1.7 μM and/or CBD 0.4 μM, two days, FIG. 4
  p-ERK: no changes
U87 cells; Homo sapiens, U-87 MG, 72 h, three day treatment, read-out: CBD IC50, U87
  IC50: 700 nM
Id-1 [2]
  Id-1 protein expression in U251 cells: concentration-dependent inhibition
SF126 cells; [7]
  IC50: 1200 nM
SF126 cells; Homo sapiens, SF-126, 72 h, three day treatment, 95% confidence limits, read-out: CBD IC50, SF126
  IC50: 1200 nM
SF126 cells; Homo sapiens, SF-126, limits 0.64-0.82, reported with the Table 3 experiments, read-out: IC50 antiproliferative, SF126
  IC50: 730 nM
Id-1 promoter
  Id-1 promoter luciferase activity: significant inhibition
MDA-MB436 cells; Homo sapiens, MDA-MB-436, 72 h
  IC50: 1500 nM
MDA-MB231 cells [3]; 1.5 μM, two day treatment, empty pLXSN vector, FIG. 7
  cell invasiveness, control MDA-MB231 (-Id1) cells: significant reduction
MDA-MB231 cells [3]
  invasion of MDA-MB231 cells: significantly reduced
U251 cells [4]
  cell cycle distribution: increases in the population of cells in G1 and G2/M phase and decreases in cells in S phase
U251 cells [5]; Homo sapiens, U-251, 72 h, three day treatment, read-out: CBD IC50, U251
  IC50: 600 nM

## CCCCCc1cc(O)c(C/C=C(\C)CCC=C(C)C)c(O)c1 [CBG, cannabigerol]
SF126 cells; [7]
  IC50: 1600 nM
MDA-MB231 cells [6]; Homo sapiens, MDA-MB-231, 72 h
  IC50: 2300 nM
MDA-MB436 cells; Homo sapiens, MDA-MB-436, 72 h
  IC50: 2100 nM

## CCCCCc1cc(O)c2c(c1)OC(C)(C)c1ccc(C)cc1-2 [CBN, cannabinol]
SF126 cells; [7]
  IC50: 1200 nM
MDA-MB231 cells [6]; Homo sapiens, MDA-MB-231, 72 h
  IC50: 1200 nM
MDA-MB436 cells; Homo sapiens, MDA-MB-436, 72 h
  IC50: 2600 nM
Id-1 [1]
  inhibition of Id-1 protein (structure activity relationship): partially inhibit

## CCCCCCC(C)(C)c1ccc([C@@H]2C[C@H](O)CC[C@H]2CCCO)c(O)c1 [CP 55,940]
SF126 cells; [8]
  IC50: 3300 nM
MDA-MB231 cells [6]; [9]
  IC50: 2500 nM
MDA-MB436 cells; [9]
  IC50: 1300 nM
Id-1 [1]
  inhibition of Id-1 protein (structure activity relationship): partially inhibit; also recorded: inhibited Id-1 expression
Id-1 [1]; 940
  inhibition of Id-1 protein (structure activity relationship): small inhibition

## Cc1c(C(=O)c2cccc3ccccc23)c2cccc3c2n1[C@H](CN1CCOCC1)CO3 [WIN 55,212-2]
U87 cells; seven day treatment, read-out: IC50 antiproliferative, U87
  IC50: 770 nM
SF126 cells; seven day treatment, 95% confidence limits, read-out: IC50 antiproliferative, SF126
  IC50: 840 nM
SF126 cells; [8]
  IC50: 1300 nM
MDA-MB231 cells [6]; [9]
  IC50: 1700 nM
MDA-MB436 cells; [9]
  IC50: 2400 nM
MDA-MB231 cells [3]
  invasion of MDA-MB231 cells: significantly reduced
U251 cells [5]; seven day treatment, read-out: IC50 antiproliferative, U251
  IC50: 1100 nM
